ChEMBL document CHEMBL3046521, “Synthesis and antitumor activity of (4-hydroxyphenyl)[5-substituted alkyl/aryl)-2-thioxo-1,3,4-thiadiazol-3-yl]methanone and [(3,4-disubstituted)-1,3-thiazol-2ylidene]-4-hydroxybenzohydrazide” (2011)

Key:
Assay type in all cases: functional
LOX IMVI = assay: Anticancer activity in Homo sapiens (human) LOXIMVI cells assessed as cell growth at 10^-5 M after 48 hr by SRB assay; settings: read-out: Activity
CAKI-1 [1] = assay: Anticancer activity in Homo sapiens (human) Caki1 cells assessed as cell growth at 10^-5 M after 48 hr by SRB assay; settings: CAKI-1, 48 h, read-out: Activity
HCT-116 = assay: Cytotoxicity against Homo sapiens (human) HCT116 cells after 48 hr by sulforhodamine B assay; settings: HCT-116, 48 h
HOP-92 = assay: Cytotoxicity against Homo sapiens (human) HOP92 cells after 48 hr by sulforhodamine B assay; settings: HOP-92, 48 h; for TGI: read-out: pTGI (converted)
HL-60(TB) = assay: Cytotoxicity against Homo sapiens (human) HL-60(TB) cells after 48 hr by sulforhodamine B assay; settings: HL-60, 48 h; for CC50: read-out: pLC50 (the source's name) (converted); for TGI: read-out: pTGI (converted)
[2] = Anticancer activity in Homo sapiens (human) NCI-ADR-RES cells assessed as cell growth at 10^-5 M after 48 hr by SRB assay; settings: read-out: Activity
MCF7 = assay: Cytotoxicity against Homo sapiens (human) MCF7 cells after 48 hr by sulforhodamine B assay; settings: MCF7, 48 h
PC-3 = assay: Cytotoxicity against Homo sapiens (human) PC3 cells after 48 hr by sulforhodamine B assay; settings: PC-3, 48 h; for TGI: read-out: pTGI (converted)
CAKI-1 [3] = assay: Cytotoxicity against Homo sapiens (human) Caki1 cells after 48 hr by sulforhodamine B assay; settings: CAKI-1, 48 h; for TGI: read-out: pTGI (converted)
OVCAR-3 = assay: Cytotoxicity against Homo sapiens (human) OVCAR3 cells after 48 hr by sulforhodamine B assay; settings: OVCAR-3, 48 h
Malme-3M = assay: Cytotoxicity against Homo sapiens (human) MALME-3M cells after 48 hr by sulforhodamine B assay
SF-295 = assay: Cytotoxicity against Homo sapiens (human) SF295 cells after 48 hr by sulforhodamine B assay; settings: SF-295, 48 h; for TGI: read-out: pTGI (converted)
KM12 = assay: Cytotoxicity against Homo sapiens (human) KM12 cells after 48 hr by sulforhodamine B assay; settings: KM12, 48 h
HCC 2998 [4] = assay: Cytotoxicity against Homo sapiens (human) HCC2998 cells after 48 hr by sulforhodamine B assay; settings: HCC 2998, 48 h
NCI-H522 = assay: Cytotoxicity against Homo sapiens (human) NCI-H522 cells after 48 hr by sulforhodamine B assay; settings: NCI-H522, 48 h
CCRF-CEM = assay: Cytotoxicity against Homo sapiens (human) CCRF-CEM cells after 48 hr by sulforhodamine B assay
MDA-MB-468 = assay: Cytotoxicity against Homo sapiens (human) MDA-MB-468 cells after 48 hr by sulforhodamine B assay; settings: MDA-MB-468, 48 h
[5] = Cytotoxicity against Homo sapiens (human) NCI-ADR-RES cells after 48 hr by sulforhodamine B assay
MDA-MB-435 = assay: Cytotoxicity against Homo sapiens (human) MDA-MB-435 cells after 48 hr by sulforhodamine B assay; settings: MDA-MB-435, 48 h
HCC 2998 [6] = assay: Anticancer activity in Homo sapiens (human) HCC2998 cells assessed as cell growth at 10^-5 M after 48 hr by SRB assay; settings: HCC 2998, 48 h, read-out: Activity

With `O=C(c1ccc(O)cc1)n1nc(-c2ccc(O)cc2)sc1=S` the growth at 10 µM (LOX IMVI) was -0.61%.
Work on `COc1ccc(-c2nn(C(=O)c3ccc(O)cc3)c(=S)s2)cc1` yielded a growth at 10 µM (CAKI-1 [1]) of 68%.
`COc1ccc(-n2c(-c3ccc(Cl)cc3)cs/c2=N\NC(=O)c2ccc(O)cc2)c(OC)c1` gave a GI50 (HCT-116) of 27.5 µM, an LC50 (HCT-116) greater than 100 µM and a TGI (HCT-116; read-out: pTGI (converted)) greater than 100 µM. The GI50 (HOP-92) was 14.5 µM, the LC50 (HOP-92) was greater than 100 µM and the TGI (HOP-92) was 64.6 µM. The GI50 (HL-60(TB)) was 17.8 µM, the CC50 (HL-60(TB)) was greater than 100 µM and the TGI (HL-60(TB)) was 81.3 µM. For the same compound, the growth at 10 µM [2] was -1.18%, the GI50 (MCF7) was 25.1 µM and the LC50 (MCF7) was greater than 100 µM. The TGI (MCF7; read-out: pTGI (converted)) was greater than 100 µM, the GI50 (PC-3) was 18.2 µM and the LC50 (PC-3) was greater than 100 µM. The TGI (PC-3) was greater than 100 µM, the GI50 (CAKI-1 [3]) was 22.9 µM and the LC50 (CAKI-1 [3]) was greater than 100 µM. The TGI (CAKI-1 [3]) was greater than 100 µM, the GI50 (OVCAR-3) was 26.9 µM and the LC50 (OVCAR-3) was greater than 100 µM. It also gave a TGI (OVCAR-3; read-out: pTGI (converted)) of 83.2 µM, a GI50 (Malme-3M) of 25.1 µM and an LC50 (Malme-3M) greater than 100 µM. It also gave a TGI (Malme-3M; read-out: pTGI (converted)) of 91.2 µM, a GI50 (SF-295) of 27.5 µM and an LC50 (SF-295) greater than 100 µM. The TGI (SF-295) was greater than 100 µM.
For `O=C(N/N=c1\scc(-c2ccc(Cl)cc2)n1-c1ccc(Cl)cc1Cl)c1ccc(O)cc1`, the GI50 (KM12) was 2.63 µM, the LC50 (KM12) was 87.1 µM and the TGI (KM12; read-out: pTGI (converted)) was 8.51 µM. The GI50 (HCC 2998 [4]) was 1.95 µM, the LC50 (HCC 2998 [4]) was 53.7 µM and the TGI (HCC 2998 [4]; read-out: pTGI (converted)) was 5.25 µM. The GI50 (NCI-H522) was 2.57 µM, the LC50 (NCI-H522) was greater than 100 µM and the TGI (NCI-H522; read-out: pTGI (converted)) was 20 µM. The GI50 (HOP-92) was 2.95 µM, the LC50 (HOP-92) was 49 µM and the TGI (HOP-92) was 7.59 µM. For the same compound, the GI50 (HL-60(TB)) was 0.302 µM, the CC50 (HL-60(TB)) was greater than 100 µM and the TGI (HL-60(TB)) was 38 µM. For the same compound, the GI50 (CCRF-CEM) was 0.977 µM, the LC50 (CCRF-CEM) was greater than 100 µM and the TGI (CCRF-CEM; read-out: pTGI) was greater than 100 µM. The GI50 (MDA-MB-468) was 3.89 µM, the LC50 (MDA-MB-468) was greater than 100 µM and the TGI (MDA-MB-468; read-out: pTGI (converted)) was greater than 100 µM. The GI50 (PC-3) was 3.39 µM, the LC50 (PC-3) was greater than 100 µM and the TGI (PC-3) was greater than 100 µM. The GI50 (CAKI-1 [3]) was 3.31 µM, the LC50 (CAKI-1 [3]) was greater than 100 µM and the TGI (CAKI-1 [3]) was 52.5 µM. For the same compound, the GI50 [5] was 2.95 µM, the LC50 [5] was greater than 100 µM and the TGI ([5]; read-out: pTGI (converted)) was 8.32 µM. The GI50 (MDA-MB-435) was 2.88 µM, the LC50 (MDA-MB-435) was greater than 100 µM and the TGI (MDA-MB-435; read-out: pTGI (converted)) was 22.9 µM. The GI50 (SF-295) was 2.82 µM, the LC50 (SF-295) was greater than 100 µM and the TGI (SF-295) was 9.77 µM. The growth at 10 µM (HCC 2998 [6]) was -1.56%.
